The values that follow come from patent US20250326767A1, “NOVEL BENZOTHIAZOLE DERIVATIVES” (CARNA BIOSCIENCES, INC., priority 2021, published 2025).

Where only a bound is given, the exact number is not on record here.

What all share (experiment): Inhibition test on activity of DYRK family, mobility shift assay (MSA)
What all share (format): biochemical

One assay deals with T1, DYRK2 (Homo sapiens, UniProt Q92630).
T1 construct: purchased Carna Biosciences, Inc. 04-132
T1 sequence (Q92630 1-601): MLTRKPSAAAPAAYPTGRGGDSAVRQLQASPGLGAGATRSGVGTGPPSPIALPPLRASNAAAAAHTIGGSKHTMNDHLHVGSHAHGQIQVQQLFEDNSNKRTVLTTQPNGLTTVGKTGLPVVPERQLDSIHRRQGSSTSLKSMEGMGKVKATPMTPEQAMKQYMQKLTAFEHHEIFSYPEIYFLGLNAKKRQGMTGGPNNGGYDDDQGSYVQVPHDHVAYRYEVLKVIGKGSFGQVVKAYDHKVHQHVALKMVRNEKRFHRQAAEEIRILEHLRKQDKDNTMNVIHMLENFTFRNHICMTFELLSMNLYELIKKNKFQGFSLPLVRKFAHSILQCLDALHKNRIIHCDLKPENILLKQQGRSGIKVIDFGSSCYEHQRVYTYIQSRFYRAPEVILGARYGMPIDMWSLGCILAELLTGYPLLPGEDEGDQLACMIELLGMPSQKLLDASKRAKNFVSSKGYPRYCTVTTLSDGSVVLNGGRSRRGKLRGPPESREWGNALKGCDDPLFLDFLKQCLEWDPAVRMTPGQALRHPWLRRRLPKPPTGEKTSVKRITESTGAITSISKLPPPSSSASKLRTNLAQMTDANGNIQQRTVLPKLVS
To be noted: ATP 40 μM; FITC-labeled DYRKtide peptide substrate; room temperature 1 hour; read-out: Inhibitory Activity DYRK2 (IC50 class). As for the experimental part: (§1) The kinase activity was measured by mobility shift assay (MSA) method using QuickScout Screening Assist™ MSA (commercially available kit manufactured by Carna Biosciences, Inc.). The substrate of the kinase reaction used was an FITC-labeled DYRKtide peptide included in the kit. An assay buffer [20 mM HEPES, 0.01% Triton X-100™, 2 mM dithiothreitol, pH 7.5] was used to create a substrate mixture solution with a substrate (4 μM), MgCl2 (20 mM), and ATP (DYRK1A: 100 μM; DYRKIB: 200 μM; DYRK2:40 μM; and DYRK3:20 μM). In addition, kinases (DYRK1A: manufactured by Carna Biosciences, Inc., Cat. No. 04-130; DYRK1B: manufactured by Carna Biosciences, Inc., Cat. No. 04-131; DYRK2; manufactured by Carna Biosciences, Inc., Cat. No. 04-132; and DYRK3; manufactured by Carna Biosciences, Inc., Cat. No. 04-133) were diluted with the assay buffer to prepare enzyme solutions (DYRK1A: 0.2 ng/μL; DYRK1B: 0.08 ng/μL; DYRK2: 0.04 ng/μL; and DYRK3:0.25 ng/μL). The 10 mM solution of the test compound in DMSO was further diluted with DMSO to 10 levels of the concentration (0.00003 mM, 0.0001 mM, 0.0003 mM, 0.001 mM, 0.003 mM, 0.01 mM, 0.03 mM, 0.1 mM, 0.3 mM, and 1 mM), each of which was subjected to 25-fold dilution with the assay buffer to obtain a drug solution (4% DMSO solution). 5 μL of the drug solution or a control solution (4% DMSO-assay buffer), 5 μL of the substrate mixture solution, and 10 μL of the enzyme solution were mixed in the wells of a polypropylene 384-well plate and allowed to react at room temperature for 1 hour, and then the reaction was quenched by adding 60 μL of the termination buffer included in the kit. Subsequently, the quantities of the substrates(S) and the phosphorylated substrate (P) in the reaction solution were measured using LabChip EZ Reader II system (manufactured by Caliper Life Sciences) according to the protocol of the assay kit.
(§2) The heights of the peaks of the “substrate” and the “phosphorylated substrate” were expressed as S and P, respectively, and a blank containing the assay buffer instead of the enzyme solution was also measured.
(§3) The inhibition rate (%) of the test compound was calculated according to the following equation: […]
(§4) wherein, A, B, and C represent P/(P+S) of the blank well, P/(P+S) of the control solution well, and P/(P+S) of the compound-containing well, respectively.
(§5) The IC50 value was calculated via a regression analysis of the inhibition rate and the test compound concentration (logarithmic value).

The target in the next assay is T2, DYRK1B (Homo sapiens, UniProt Q9Y463).
T2 construct: purchased Carna Biosciences, Inc. 04-131
T2 sequence (Q9Y463 whole entry): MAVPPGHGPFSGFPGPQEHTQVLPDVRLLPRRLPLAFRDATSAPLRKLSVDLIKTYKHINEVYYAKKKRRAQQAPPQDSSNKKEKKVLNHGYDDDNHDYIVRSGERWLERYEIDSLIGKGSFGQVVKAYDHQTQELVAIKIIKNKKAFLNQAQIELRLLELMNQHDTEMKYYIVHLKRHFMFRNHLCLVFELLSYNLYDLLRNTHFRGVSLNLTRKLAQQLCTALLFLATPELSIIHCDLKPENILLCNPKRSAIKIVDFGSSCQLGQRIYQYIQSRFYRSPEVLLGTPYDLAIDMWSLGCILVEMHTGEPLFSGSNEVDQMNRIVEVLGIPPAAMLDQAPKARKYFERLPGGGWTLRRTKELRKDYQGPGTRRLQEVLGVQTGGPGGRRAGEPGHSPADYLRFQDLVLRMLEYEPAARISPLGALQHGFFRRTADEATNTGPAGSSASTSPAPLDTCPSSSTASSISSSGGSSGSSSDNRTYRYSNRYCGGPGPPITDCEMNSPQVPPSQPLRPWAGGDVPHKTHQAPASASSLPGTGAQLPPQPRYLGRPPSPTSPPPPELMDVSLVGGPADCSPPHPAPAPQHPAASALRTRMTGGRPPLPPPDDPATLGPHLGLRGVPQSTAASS
To be noted: ATP 200 μM; FITC-labeled DYRKtide peptide substrate; room temperature 1 hour; read-out: Inhibitory Activity DYRK1B (IC50 class). As for the experimental part:
as §1, §2, §3, §4, §5

For another assay, the target named is T3, DYRK1A (Homo sapiens, UniProt Q13627).
T3 construct: purchased Carna Biosciences, Inc. 04-130
To be noted: ATP 100 μM; FITC-labeled DYRKtide peptide substrate; room temperature 1 hour; read-out: Inhibitory Activity DYRK1A (IC50 class). As for the experimental part:
as §1, §2, §3, §4, §5

In a further assay the target is T4, DYRK3 (Homo sapiens, UniProt O43781).
T4 construct: purchased Carna Biosciences, Inc. 04-133
T4 sequence (O43781 1-588): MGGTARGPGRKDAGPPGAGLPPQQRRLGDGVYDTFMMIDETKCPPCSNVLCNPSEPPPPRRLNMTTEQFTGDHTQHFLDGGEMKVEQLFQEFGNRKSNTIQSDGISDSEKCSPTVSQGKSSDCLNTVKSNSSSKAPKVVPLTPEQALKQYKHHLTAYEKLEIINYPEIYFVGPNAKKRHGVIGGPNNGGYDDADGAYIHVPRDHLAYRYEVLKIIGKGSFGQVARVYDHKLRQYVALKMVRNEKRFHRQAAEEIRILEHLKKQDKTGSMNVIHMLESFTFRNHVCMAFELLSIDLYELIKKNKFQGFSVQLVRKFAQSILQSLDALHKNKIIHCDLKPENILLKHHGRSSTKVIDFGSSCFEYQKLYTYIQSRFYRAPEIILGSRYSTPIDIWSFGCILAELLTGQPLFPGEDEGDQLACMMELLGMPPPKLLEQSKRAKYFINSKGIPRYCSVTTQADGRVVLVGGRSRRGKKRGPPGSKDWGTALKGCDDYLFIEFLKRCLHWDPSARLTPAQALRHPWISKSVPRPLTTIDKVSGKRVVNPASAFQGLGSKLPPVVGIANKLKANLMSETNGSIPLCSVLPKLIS
To be noted: ATP 20 μM; FITC-labeled DYRKtide peptide substrate; room temperature 1 hour; read-out: Inhibitory Activity DYRK3 (IC50 class). On the procedure: as §1, §2, §3, §4, §5

Broadly, the IC50 is the midpoint of a concentration-inhibition curve.

Consider `CC#C[C@@H]1C[C@@H](C)NC(=O)N1c1nc2c3c(ccc2s1)OCC3` [Example 15, (4R,6S)-1-(7,8-dihydrobenzofuro[4,5-d]thiazol-2-yl)-4-methyl-6-(prop-1-yn-1-yl)tetrahydropyrimidin-2(1H)-one], for which the IC50 was > 1 µM at DYRK2, 0.01 to 0.1 µM on DYRK1B, 0.01 to 0.1 µM on DYRK1A and > 1 µM on DYRK3.
Take `CC#CC1C[C@H](C)NC(=O)N1c1nc2c3c(ccc2s1)OCC3` (stereo in doubt) [Example 16, (4S,6S)-1-(7,8-dihydrobenzofuro[4,5-d]thiazol-2-yl)-4-methyl-6-(prop-1-yn-1-yl)tetrahydropyrimidin-2(1H)-one]: the concentration for half-maximal inhibition (IC50) at DYRK2, on DYRK1B, on DYRK1A and on DYRK3 was > 1 µM in each case.
In the case of `CC#CC1CCNC(=O)N1c1nc2c3c(ccc2s1)OCCO3` (single isomer, unassigned) [Example 5, 1-(7,8-dihydro-[1,4]dioxyno[2′,3′:5,6]benzo[1,2-d]thiazol-2-yl)-6-(prop-1-yn-1-yl)tetrahydropyrimidin-2(1H)-one], the half-maximal inhibitory concentration (IC50) at DYRK2 was 0.1 to 1 µM; at DYRK1B, < 0.01 µM; at DYRK1A, < 0.01 µM; on DYRK3 it was 0.1 to 1 µM.
With `CC#C[C@H]1[C@@H](C)CNC(=O)N1c1nc2c3c(ccc2s1)OCC3` (stereo in doubt) [Example 12, (5S*,6R*)-1-(7,8-dihydrobenzofuro[4,5-d]thiazol-2-yl)-5-methyl-6-(prop-1-yn-1-yl)tetrahydropyrimidin-2(1H)-one], the concentration for half-maximal inhibition (IC50) at DYRK2 was > 1 µM; on DYRK1B it was 0.1 to 1 µM; on DYRK3, > 1 µM.
Take `CC#C[C@H]1[C@H](C)CNC(=O)N1c1nc2c3c(ccc2s1)OCC3` (stereo in doubt) [Example 13, (5R*,6R*)-1-(7,8-dihydrobenzofuro[4,5-d]thiazol-2-yl)-5-methyl-6-(prop-1-yn-1-yl)tetrahydropyrimidin-2(1H)-one]: the IC50 on DYRK2, on DYRK1B and on DYRK3 was > 1 µM each time.
On to `CC#CC1C[C@H](C)NC(=O)N1c1nc2c3c(ccc2s1)OCC3` (stereo in doubt) [Example 17, (4S,6R)-1-(7,8-dihydrobenzofuro[4,5-d]thiazol-2-yl)-4-methyl-6-(prop-1-yn-1-yl)tetrahydropyrimidin-2(1H)-one], for which the 50% inhibitory concentration (IC50) on DYRK2 is > 1 µM; on DYRK1B, 0.01 to 0.1 µM; on DYRK1A, 0.01 to 0.1 µM; at DYRK3, > 1 µM.
Take `CC#C[C@H]1C[C@@H](C)NC(=O)N1c1nc2c3c(ccc2s1)OCC3` [Example 14, (4R,6R)-1-(7,8-dihydrobenzofuro[4,5-d]thiazol-2-yl)-4-methyl-6-(prop-1-yn-1-yl)tetrahydropyrimidin-2(1H)-one]: the IC50 on DYRK2, on DYRK1B, at DYRK1A and on DYRK3 was > 1 µM throughout.
Turning to `CC#CC1N(c2nc3c4c(ccc3s2)OCCO4)C(=O)NC12CC2` (single isomer, unassigned) [Example 7, 6-(7,8-dihydro-[1,4]dioxyno[2′,3′:5,6]benzo[1,2-d]thiazol-2-yl)-7-(prop-1-yn-1-yl)-4,6-diazaspiro[2.4]heptan-5-one], the values for the IC50 on DYRK2, at DYRK1B and at DYRK3 were 0.1 to 1 µM, < 0.01 µM and 0.1 to 1 µM, respectively.
